Test results taken from patent US9078899B2, “Pyrazolyl-based carboxamides II” (Grünenthal GmbH, priority 2013, dated 2015).

Columns and labels:
[1] = molecular target: T1, CRAC channel (Homo sapiens, UniProt Q96D31); experiment: HEK Calcium Influx Assay (FLIPR); type: cell-based; conditions: 10 μM; endogenous SOC in HEK293 cells, thapsigargin store depletion, Ca2+ signal 9.5-10 min post-administration; read-out: % inhib.[@ 10 μM] FLIPR
T1 construct: host or cells: HEK293
Method: The effect of compounds of the invention on intracellular [Ca^2+] was tested in the HEK293 cell line (ECACC).
HEK293 cells were cultured in DMEM/F12/Glutamax (Gibco) containing 10% FCS (Gibco), and maintained at 37° C., 5% CO2. Cell were split twice a week [3*10^6 (Mon-Thu) and 1*10^6 (Thu-Mon) cells/50 ml medium in T-175 ZK culture flasks, respectively]. Twenty four hours pre-experiment, cells were seeded on 96 well plates (Poly-D-Lysine 96well Black/Clear Plate, BD Biocoat REF 356640) at a density of 40,000 cells/well in DMEM/F12 (Gibco) containing 10% FCS (Gibco), and maintained at 37° C., 5% CO2.
Prior to store-depletion, cell culture medium was removed and cells were loaded with the a Calcium-sensitive fluorescent dye comprised within the Calcium-4-assay kit (Molecular Devices) in nominally Ca^2+-free HBS buffer (140 mM NaCl, 4 mM KCl, 0.2 mM MgCl2, 11 mM D-glucose, and 10 mM HEPES, pH 7.4) according to manufacturer's instruction for 60 min at 37° C., 5% CO2.
Passive depletion of intracellular Ca^2+-stores was then triggered by employing the SERCA inhibitor thapsigargin (2 μM final) for 10 min in the dark (RT). To prevent immediate Ca^2+-entry via the activated Store-operated channels (SOCs), cells were maintained in Ca^2+-free HBS buffer comprising 100 μM EGTA during store-depletion.
Intracellular changes in [Ca^2+] were subsequently monitored with the FLIPR device (Molecular Devices). In brief, baseline imaging post-store depletion was allowed for 1 min before adjusting the extracellular buffer to 3 mM CaCl2. Increases in intracellular [Ca^2+] due to pre-activated SOC channels were monitored for 15 min until intracellular Ca^2+ levels had declined into a steady-state. Finally, compounds were administered and Ca^2+ signals were recorded for additional 10 min.
Inhibition of endogenous SOC in HEK293 cells was quantified employing the average Ca^2+ signal measured from 9.5-10 min post-administration. Zero percent inhibition (MAX) was defined as the Ca^2+ signal recorded from wells to which DMSO-only had been added instead of compound. Hundred percent inhibition (MIN) was defined as the signal obtained from wells in which cells haven't been treated with TG prior to Ca^2+ addition and to which DMSO-only had been added instead of compound. For routine IC50 determinations of compounds, 8 concentrations of a serial dilution (1:3.16) were tested, starting off from 10 μM. Reliable IC50's could consequently be determined only, if they were at least sub 2.5-3 μM.

[2] = test system: Interleukin-2 (IL-2) production/release; experiment: Jurkat IL-2 Production Assay; type: cell-based; conditions: Homo sapiens; Jurkat T cells clone E6-1, 15 μg/ml PHA for 22 hours, IL-2 in supernatant
Method: Jurkat IL-2 Production Assay
The effect of compounds of the invention on Interleukin-2 (IL-2) production/release was tested in the Jurkat T cell line (ECACC) clone E6-1.
Jurkat T cells were cultured in DMEM/F12/Glutamax (Gibco) containing 10% FCS (Gibco), and maintained at 37° C., 5% CO2. Cell were split twice a week [5*10^6 (Mon-Thu) and 1*10^7 (Thu-Mon) cells/50 ml medium in T-175 ZK culture flasks, respectively].
Prior to experiment, cells were seeded on 96 well plates (Cellstar 96 Well; Cat No. 655180, Greiner bio-one) at a density of 5*10^5 cells/well in DMEM/F12/Glutamax (Gibco) containing 10% FCS (Gibco), and incubated for 60 min at 37° C., 5% CO2. Subsequently, compounds were added and cells were allowed to incubate for 30 min at 37° C., 5% CO2. Cells were then stimulated with 15 μg/ml Phytohemagglutinin (PHA; Sigma) for 22 hours at 37° C., 5% CO2.
Before sampling of the supernatants, cells were spun down (200*g/5 min/RT). The amount of IL-2 released into the supernatant was quantified with the human IL-2 AlphaLisa kit (Perkin Elmer) according to manufacturer's instructions. Luminescence proximity measurements were carried out in the Synergy H4 reader (BioTek) employing the fluorescence setting of the reader (ex: 680/30 nm; em: 620/40 nm).
Inhibition of IL-Production/Release in/from Jurkat T Cells was Quantified as Follows:
Zero percent inhibition (MAX) was defined as the [IL-2] determined in supernatants derived from cells to which PHA & DMSO-only had been added instead of compound. Hundred percent inhibition (MIN) was defined as the [IL-2] determined in supernatants derived from cells that had been pre-treated with 1 μM CyclosporineA (Sigma) before the addition of 15 μg/ml PHA.
For routine IC50 determinations of compounds, 8 concentrations of a serial dilution (1:3.16) were tested, starting off from 10 μM.

T1 sequence (Q96D31 whole entry): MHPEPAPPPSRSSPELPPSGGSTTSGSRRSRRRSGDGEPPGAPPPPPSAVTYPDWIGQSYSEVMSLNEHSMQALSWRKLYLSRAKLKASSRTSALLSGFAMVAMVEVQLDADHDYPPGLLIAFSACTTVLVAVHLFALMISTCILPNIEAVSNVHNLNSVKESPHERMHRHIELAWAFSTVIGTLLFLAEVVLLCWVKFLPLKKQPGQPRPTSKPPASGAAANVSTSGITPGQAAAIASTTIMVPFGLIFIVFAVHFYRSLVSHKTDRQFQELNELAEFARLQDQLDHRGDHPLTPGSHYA

inhibition at 10 µM [1] [%]	IC50 [2] [µM]	Structure (SMILES)
> 70	< 0.5	COc1ccc(OC)c(-c2cc(C(=O)Nc3c(F)cccc3Cl)nn2C)c1 [Example 35, N-(2-Chloro-6-fluoro-phenyl)-5-(2,5-dimethoxyphenyl)-1-methyl-1H-pyrazole-3-carboxylic acid amide]
> 70	< 0.5	Cn1nc(C(=O)Nc2c(F)cccc2F)cc1-c1cc(C(F)(F)F)ccc1Cl [Example 36, 5-[2-Chloro-5-(trifluoromethyl)-phenyl]-N-(2,6-difluoro-phenyl)-1-methyl-1H-pyrazole-3-carboxylic acid amide]
> 70	< 0.5	COc1ccc(OC)c(-c2c(Cl)c(C(=O)Nc3c(F)cccc3F)nn2C)c1 [Example 39, 4-Chloro-N-(2,6-difluoro-phenyl)-5-(2,5-dimethoxyphenyl)-1-methyl-1H-pyrazole-3-carboxylic acid amide]
> 70	1 to 5	COc1ccc(OC)c(-c2c(Cl)c(C(=O)Nc3ccncc3F)nn2C)c1 [Example 40, 4-Chloro-5-(2,5-dimethoxyphenyl)-N-(3-fluoro-pyridin-4-yl)-1-methyl-1H-pyrazole-3-carboxylic acid amide]
50 to 70	1 to 5	CCc1c(C(=O)Nc2c(F)cccc2F)nn(C)c1-c1cc(OC)ccc1OC [Example 42, N-(2,6-Difluoro-phenyl)-5-(2,5-dimethoxyphenyl)-4-ethyl-1-methyl-1H-pyrazole-3-carboxylic acid amide]
< 50	1 to 5	COc1ccc(OC)c(-c2c(CO)c(C(=O)Nc3c(F)cccc3F)nn2C)c1 [Example 43, N-(2,6-Difluoro-phenyl)-5-(2,5-dimethoxyphenyl)-4-(hydroxymethyl)-1-methyl-1H-pyrazole-3-carboxylic acid amide]
50 to 70	1 to 5	COc1ccc(OC)c(-c2c(N)c(C(=O)Nc3c(F)cccc3F)nn2C)c1 [Example 44, 4-Amino-N-(2,6-difluoro-phenyl)-5-(2,5-dimethoxyphenyl)-1-methyl-1H-pyrazole-3-carboxylic acid amide]
> 70	0.5 to 1	Cn1nc(C(=O)Nc2c(F)cccc2F)cc1-c1cc(OC(F)(F)F)ccc1C1CC1 [Example 45, 5-[2-Cyclopropyl-5-(trifluoromethyloxy)-phenyl]-N-(2,6-difluoro-phenyl)-1-methyl-1H-pyrazole-3-carboxylic acid amide]
> 70	< 0.5	Cn1nc(C(=O)Nc2c(F)cncc2F)cc1-c1cc(OC(F)(F)F)ccc1C1CC1 [Example 46, 5-[2-Cyclopropyl-5-(trifluoromethyloxy)-phenyl]-N-(3,5-difluoro-pyridin-4-yl)-1-methyl-1H-pyrazole-3-carboxylic acid amide]
> 70	1 to 5	Cn1nc(C(=O)Nc2ccncc2F)cc1-c1cc(OC(F)(F)F)ccc1C1CC1 [Example 47, 5-[2-Cyclopropyl-5-(trifluoromethyloxy)-phenyl]-N-(3-fluoro-pyridin-4-yl)-1-methyl-1H-pyrazole-3-carboxylic acid amide]
> 70	1 to 5	Cn1nc(C(=O)Nc2c(F)cncc2F)cc1-c1c(F)cccc1C(F)(F)F [Example 49, N-(3,5-Difluoro-pyridin-4-yl)-5-[2-fluoro-6-(trifluoromethyl)-phenyl]-1-methyl-1H-pyrazole-3-carboxylic acid amide]
50 to 70	1 to 5	Cn1nc(C(=O)Nc2c(F)cccc2F)cc1-c1c(F)cccc1C(F)(F)F [Example 51, N-(2,6-Difluoro-phenyl)-5-[2-fluoro-6-(trifluoromethyl)-phenyl]-1-methyl-1H-pyrazole-3-carboxylic acid amide]
< 50	1 to 5	COc1cc(S(C)(=O)=O)ccc1-c1cc(C(=O)Nc2c(F)cccc2F)nn1C [Example 66, N-(2,6-Difluoro-phenyl)-5-(2-methoxy-4-methylsulfonyl-phenyl)-1-methyl-1H-pyrazole-3-carboxylic acid amide]
< 50	1 to 5	CNc1c(C(=O)Nc2c(F)cncc2F)nn(C)c1-c1cc(OC)ccc1OC [Example 67, N-(3,5-Difluoro-pyridin-4-yl)-5-(2,5-dimethoxyphenyl)-1-methyl-4-methylamino-1H-pyrazole-3-carboxylic acid amide]
